# Experimental data: US7012078B2, “2-aminopyridines containing fused ring substituents” (Pfizer Inc., priority 1997, dated 2006)
# Structures can show the parent of a compound that is named as a salt.
row,melting point,Compound
1,240 to 255 °C,"CN1CC(Oc2ccc(-c3cccc(N)n3)c3ccccc23)C1 (as salt: hydrochloride) [Example 75, 6-[4-(N-methyl-azetidin-3-yloxy)-naphthalen-1-yl]-pyridin-2-ylamine]"
2,120 to 135 °C,"CC(C)N1CC(Oc2ccc(-c3cccc(N)n3)c3ccccc23)C1 (as salt: hydrochloride) [Example 76, 6-[4-(N-Isopropyl-azetidin-3-yloxy)-naphthalen-1-yl]-pyridin-2-ylamine]"

# Further lines, the compound ahead of its results:
row,Compound,melting point
1,"Nc1cccc(-c2ccc(OC3CN(Cc4ccccn4)C3)c3ccccc23)n1 (as salt: hydrochloride) [Example 74, 6-[4-(1-Pyridin-2-ylmethyl-azetidin-3-yloxy)-naphthalen-1-yl]-pyridin-2-ylamine]",97 to 120 °C
2,"Nc1cccc(-c2ccc(OCC3CCN3)c3ccccc23)n1 (centres unmarked) (as salt: salt) [Example 71, 6-[4-(Azetidin-2-ylmethoxy)-naphthalen-1-yl]-pyridin-2-ylamine]",135 to 150 °C
3,"COc1cc2c(cc1OC)CN(CCc1ccc(-c3cccc(N)n3)c3ccccc13)CC2 [Example 4, 6-{4-[2-(6,7-Dimethoxy-3,4-dihydro-1H-isoquinolin-2-yl)-ethyl]-naphthalen-1-yl}-pyridin-2-ylamine]",172 to 176 °C
